Reference: patent publication US10194660B2, “Herbicidal compounds” (Syngenta Participations AG, priority 2015, dated 2019)

Experiments:
Assay type in all cases: in vivo
[1] = system: Ipomoea hederacea (IPOHE); test: Post-emergence herbicidal glasshouse test; details: evaluated after 13 days, five point scale
Description: (§1) Seeds of a variety of test species are sown in standard soil in pots (Lolium perenne (LOLPE), Solanum nigrum (SOLNI), Amaranthus retoflexus (AMARE), Setaria faberi (SETFA), Echinochloa crus-galli (ECHCG), Ipomoea hederacea (IPOHE)). After cultivation for one day (pre-emergence) or after 8 days cultivation (post-emergence) under controlled conditions in a glasshouse (at 24/16° C., day/night; 14 hours light; 65% humidity), the plants are sprayed with an aqueous spray solution derived from the formulation of the technical active ingredient in acetone/water (50:50) solution containing 0.5% Tween 20 (polyoxyethelyene sorbitan monolaurate, CAS RN 9005-64-5). Compounds are applied at 500 g/h unless otherwise stated. The test plants are then grown in a glasshouse under controlled conditions in a glasshouse (at 24/16° C., day/night; 14 hours light; 65% humidity) and watered twice daily. After 13 days for pre and post-emergence, the test is evaluated for the percentage damage caused to the plant. The biological activities are shown in the following table on a five point scale (5=80-100%; 4=60-79%; 3=40-59%; 2=20-39%; 1=0-19%).

[2] = system: Solanum nigrum (SOLNI); test: Post-emergence herbicidal glasshouse test; details: applied at 250 g/ha, evaluated after 13 days, five point scale
Description: as §1

[3] = system: Setaria faberi (SETFA); test: Post-emergence herbicidal glasshouse test; details: evaluated after 13 days, five point scale
Description: as §1

[4] = system: Lolium perenne (LOLPE); test: Post-emergence herbicidal glasshouse test; details: applied at 250 g/ha, evaluated after 13 days, five point scale
Description: as §1

[5] = system: Amaranthus retoflexus (AMARE); test: Post-emergence herbicidal glasshouse test; details: evaluated after 13 days, five point scale
Description: as §1

[6] = system: Echinochloa crus-galli (ECHCG); test: Post-emergence herbicidal glasshouse test; details: evaluated after 13 days, five point scale
Description: as §1

[7] = system: Ipomoea hederacea (IPOHE); test: Pre-emergence herbicidal glasshouse test; details: evaluated after 13 days, five point scale
Description: as §1

[8] = system: Solanum nigrum (SOLNI); test: Pre-emergence herbicidal glasshouse test; details: applied at 250 g/ha, evaluated after 13 days, five point scale
Description: as §1

[9] = system: Setaria faberi (SETFA); test: Pre-emergence herbicidal glasshouse test; details: evaluated after 13 days, five point scale
Description: as §1

[10] = system: Lolium perenne (LOLPE); test: Pre-emergence herbicidal glasshouse test; details: applied at 250 g/ha, evaluated after 13 days, five point scale
Description: as §1

[11] = system: Amaranthus retoflexus (AMARE); test: Pre-emergence herbicidal glasshouse test; details: evaluated after 13 days, five point scale
Description: as §1

[12] = system: Echinochloa crus-galli (ECHCG); test: Pre-emergence herbicidal glasshouse test; details: evaluated after 13 days, five point scale
Description: as §1

Cn1nnnc1NC(=O)c1cc2cnc(C(F)(F)F)nc2c(-c2ccccc2)c1C(F)(F)F [Compound 1.001]
1 (1=0-19%): percentage damage caused to the plant, PRE Application LOLPE [10]
4 (4=60-79%): percentage damage caused to the plant, POST Application LOLPE [4] | percentage damage caused to the plant, PRE Application IPOHE ([7]; applied at 250 g/ha)
3 (3=40-59%): percentage damage caused to the plant, PRE Application SETFA ([9]; applied at 250 g/ha)
5 (5=80-100%): percentage damage caused to the plant, POST Application IPOHE ([1]; applied at 250 g/ha) | percentage damage caused to the plant, POST Application SOLNI [2] | percentage damage caused to the plant, POST Application SETFA ([3]; applied at 250 g/ha) | percentage damage caused to the plant, POST Application AMARE ([5]; applied at 250 g/ha) | percentage damage caused to the plant, POST Application ECHCG ([6]; applied at 250 g/ha) | percentage damage caused to the plant, PRE Application SOLNI [8] | percentage damage caused to the plant, PRE Application AMARE ([11]; applied at 250 g/ha) | percentage damage caused to the plant, PRE Application ECHCG ([12]; applied at 250 g/ha)

Cn1nnnc1NC(=O)c1cc2cnc(C(F)(F)F)nc2c(-c2ccccc2)c1Cl [Compound 1.021]
5 (5=80-100%): percentage damage caused to the plant, POST Application IPOHE ([1]; applied at 500 g/h) | percentage damage caused to the plant, POST Application SETFA ([3]; applied at 500 g/h) | percentage damage caused to the plant, POST Application AMARE ([5]; applied at 500 g/h) | percentage damage caused to the plant, POST Application ECHCG ([6]; applied at 500 g/h) | percentage damage caused to the plant, PRE Application IPOHE ([7]; applied at 500 g/h) | percentage damage caused to the plant, PRE Application SETFA ([9]; applied at 500 g/h) | percentage damage caused to the plant, PRE Application AMARE ([11]; applied) | percentage damage caused to the plant, PRE Application ECHCG ([12]; applied at 500 g/h)

Cn1nnnc1NC(=O)c1cc2cncnc2c(-c2ccccc2)c1Cl [Compound 1.042]
5 (5=80-100%): percentage damage caused to the plant, POST Application IPOHE ([1]; applied at 500 g/h) | percentage damage caused to the plant, POST Application SETFA ([3]; applied at 500 g/h) | percentage damage caused to the plant, POST Application AMARE ([5]; applied at 500 g/h) | percentage damage caused to the plant, POST Application ECHCG ([6]; applied at 500 g/h) | percentage damage caused to the plant, PRE Application IPOHE ([7]; applied at 500 g/h) | percentage damage caused to the plant, PRE Application SETFA ([9]; applied at 500 g/h) | percentage damage caused to the plant, PRE Application AMARE ([11]; applied) | percentage damage caused to the plant, PRE Application ECHCG ([12]; applied at 500 g/h)

Cn1nnnc1NC(=O)c1cc2cnc(C3CC3)nc2c(-c2ccccc2)c1Cl [Compound 1.028]
5 (5=80-100%): percentage damage caused to the plant, POST Application IPOHE ([1]; applied at 500 g/h) | percentage damage caused to the plant, POST Application SETFA ([3]; applied at 500 g/h) | percentage damage caused to the plant, POST Application AMARE ([5]; applied at 500 g/h) | percentage damage caused to the plant, POST Application ECHCG ([6]; applied at 500 g/h) | percentage damage caused to the plant, PRE Application SETFA ([9]; applied at 500 g/h) | percentage damage caused to the plant, PRE Application AMARE ([11]; applied) | percentage damage caused to the plant, PRE Application ECHCG ([12]; applied at 500 g/h)
3 (3=40-59%): percentage damage caused to the plant, PRE Application IPOHE ([7]; applied at 500 g/h)

CC(C)c1ncc2cc(C(=O)Nc3nnnn3C)c(Cl)c(-c3ccccc3)c2n1 [Compound 1.035]
4 (4=60-79%): percentage damage caused to the plant, PRE Application IPOHE ([7]; applied at 500 g/h)
5 (5=80-100%): percentage damage caused to the plant, POST Application IPOHE ([1]; applied at 500 g/h) | percentage damage caused to the plant, POST Application SETFA ([3]; applied at 500 g/h) | percentage damage caused to the plant, POST Application AMARE ([5]; applied at 500 g/h) | percentage damage caused to the plant, POST Application ECHCG ([6]; applied at 500 g/h) | percentage damage caused to the plant, PRE Application SETFA ([9]; applied at 500 g/h) | percentage damage caused to the plant, PRE Application AMARE ([11]; applied) | percentage damage caused to the plant, PRE Application ECHCG ([12]; applied at 500 g/h)

Cc1c(C(=O)Nc2nnnn2C)cc2cnc(C(F)(F)F)nc2c1-c1ccccc1 [Compound 1.006]
2 (2=20-39%): percentage damage caused to the plant, PRE Application ECHCG ([12]; applied at 500 g/h)
5 (5=80-100%): percentage damage caused to the plant, POST Application IPOHE ([1]; applied at 500 g/h) | percentage damage caused to the plant, POST Application SETFA ([3]; applied at 500 g/h) | percentage damage caused to the plant, POST Application AMARE ([5]; applied at 500 g/h) | percentage damage caused to the plant, POST Application ECHCG ([6]; applied at 500 g/h) | percentage damage caused to the plant, PRE Application SETFA ([9]; applied at 500 g/h) | percentage damage caused to the plant, PRE Application AMARE ([11]; applied)
3 (3=40-59%): percentage damage caused to the plant, PRE Application IPOHE ([7]; applied at 500 g/h)
